Measurements taken from publication PMC8403366, “Functional significance of gain-of-function H19 lncRNA in skeletal muscle differentiation and anti-obesity effects” (Genome Medicine, 2021).

Assays:
Type in all cases: in vivo, mouse
[1] = system: C57BL/6 J mice on a HFD; experiment: HFD-induced obesity model: body, muscle and fat weights, body composition; details: HFD-fed male mice; for body weight: n = 10
Description: To determine the effects of H19-Rgof with a skeletal muscle enrichment peptide agrin (AGR-H19-Rgof) on WT C57BL/6 J or Lep^Ob/Ob mice, AGR-tagged oligonucleotides were used. The synthesis and sequence information of AGR-tagged RNA oligonucleotides are described in “Synthesis of H19-Rgof mimics, AGR-H19-Rgof mimics, and Pharmacokinetics (PK) studies.” AGR-Scr (conjugated to scramble oligonucleotides), H19-Rgof, or AGR-H19-Rgof mimics were injected at a dose of 1 mg/kg intraperitoneally into 3-week-old male and female mice. For AGR-H19-Rgof treatment in HFD (Cat # D12492, Research Diets, Inc.)-fed mice, male C57BL/6 J mice were fed with a HFD starting at 6 weeks of age. The AGR-H19-Rgof and AGR-Scr mimics were injected at a dose of 0.5 or 1 mg/kg intraperitoneally every other day starting 2 weeks after the initiation of HFD feeding. Body weight was measured weekly. The general health condition, grooming, and behavior of all animals were monitored daily, and injection sites were checked for signs of redness or edema.
Unless otherwise indicated, mice were fasted for 4–6 h, anesthetized with isoflurane, and sacrificed by heart puncture. Tissues were dissected, weighed, and either dipped in liquid nitrogen or fixed for immunohistochemistry analysis. Individual muscle was dissected on one side of the body and weighed. Adipose tissues including white adipose tissue (WAT), visceral adipose tissue (VAT), and brown adipose tissue (BAT) were collected and weighed.
Whole-body composition parameters were measured in male and female mice fed with either chow or HFD by Faxitron Specimen Radiography System (Faxitron X-Ray Corp.) to precisely measure total body fat and lean mass. Mice were housed in the Oxymax/CLAMS metabolic cage system (Columbus Instruments) for 4 days with ad libitum access to food and water. Volume of oxygen uptake (VO2) and exhaled carbon dioxide (VCO2), respiratory exchange ratio (RER), and activity were measured using the Oxymax system. RER is determined by dividing VCO2 produced by VO2 consumed.

[2] = system: C57BL/6 J mice; experiment: Glucose and insulin tolerance tests; details: n = 5
Description: Insulin (ITT) and glucose (GTT) tolerance tests were performed on 6-h fasted male and female mice fed with chow or HFD. Glucose values were measured using AimStrip® Plus Blood Glucose Meter (VWR) by tail snip. Glucose (1 g per kg body weight) or human insulin (0.75 U per kg body weight) was injected intraperitoneally (i.p.) after baseline glucose levels were measured in each mouse, and blood glucose levels were measured 15, 30, 45, 60, and 90 min after injection.

[3] = system: C57BL/6 J mice; experiment: Skeletal muscle immunostaining, fiber number/area, fiber typing, SDH staining
Description: Skeletal muscles were collected and fixed in 10% Neutral Buffered Formalin at 4 °C for 1 h, followed by 10% sucrose/PBS overnight and then 18% sucrose/PBS overnight at 4 °C before being frozen embedded and sectioned. For immunostaining, frozen cross-sections of muscle were fixed in 4% paraformaldehyde for 5 min, washed, permeabilized with 0.5% Triton X-100, and stained with indicated primary antibodies. After extensive washing in PBS-0.05% Triton X-100, the secondary antibody was added and incubated for 1 h. After extensive washing in PBS-0.05% Triton X-100, nuclei were stained with Vectashield Antifade Mounting Medium with DAPI (Vector Laboratories). Images of laminin-stained fibers were taken by Zeiss microscope. Muscle cross-sectional area and fiber numbers were quantified by ImageJ. Immunostained tissue slides were obtained with Vectra Polaris Multispectral Imaging scanner (PerkinElmer). The quantification of IF staining density was performed by Image-pro plus 6.0 (Media Cybernetics) and calculated based on the average staining intensity and the percentage of positively stained cells. To quantify myotube fusion, fusion index was calculated by dividing the number of nuclei in MHC-positive myotubes with ≥ 3 nuclei by the total number of nuclei analyzed in a field.
Muscle fiber-type immunofluorescence staining was performed with antibodies to MHC type I (supernatant, DSHB, BA-D5), MHC type IIa (supernatant, DSHB, SC-71), and MHC type IIb (supernatant, DSHB, BF-F3), as previously described. Type IIx fibers are not recognized by these antibodies and appeared black. Succinic dehydrogenase (SDH) staining was used to assess metabolic fiber type switch. Frozen cross-sections of muscle were allowed to equilibrate to room temperature and then incubated in a solution containing Nitroblue tetrazolium and sodium succinate for 20 min. Sections were washed 3 times in PBS, dehydrated in ethanol, and mounted with an aqueous mounting medium (Vector Laboratories). The antibodies used are listed in the Additional file 3: Table S3.

[4] = system: C57BL/6 J mice; experiment: Forelimb grip strength test; details: vs AGR-Scr
Description: A grip strength meter (Columbus Instruments) was used to measure the forelimb grip strength as previously reported. The grid was attached to a force transducer to measure the maximum force applied by the mouse on the grid during the pull. The body weight of the mice was recorded prior to the test and the units of force were calculated in grams-of-force.

[5] = system: C57BL/6 J mice; experiment: Liver Oil Red O / H&E staining and WAT adipocyte size
Description: H&E staining was performed in paraffin-embedded livers to visualize the pattern of lipid accumulation and inflammatory status. Lipid droplet accumulation in the liver was visualized using Oil Red O (O0625, Sigma) staining of frozen liver sections prepared in an optimum cutting temperature (O.C.T.) compound (4585, Fisher Scientific). Histopathology images were acquired with a light microscope (Olympus). Adipocyte size (from WAT) was determined with ImageJ software. Sections from five animals per group were used and at least 500 adipocytes per animal were measured from multiple fields.

[6] = HFD-fed mice, staining intensity, n = 8
[7] = WT mice, 1 mg/kg i.p. every 3 days, 12 weeks, immunofluorescence, n = 8
[8] = WT mice, MHC isoform immunolabeling, vs AGR-Scr, n = 5

N-terminal-ELTNEIPAELTNEIPA-Linker-5'-[2’-F-C][2’-F-U][2’-F-C][2’-F-U][2’-F-U][2’-F-U][2’-F-A][2’-F-U][2’-F-U][2’-F-U][2’-F-C][2’-F-U][2’-F-G][2’-F-A][2’-F-G][2’-F-C][2’-F-U][2’-F-U][2’-F-U][2’-F-C][2’-F-C][2’-F-U][2’-F-A][2’-F-U][2’-F-C][2’-F-U][2’-F-U][2’-F-U][2’-F-C][2’-F-C]-3' [AGR-H19-Rgof]
body weight ([1]; 0.5 mg/kg i.p. every other day): significantly reduced
body weight ([1]; 1 mg/kg i.p. every other day): significantly reduced
fat percentage (body composition) ([1]; vs AGR-Scr, n = 5): reduced
fat weight (body composition) ([1]; vs AGR-Scr, n = 5): reduced
lean weight (body composition) ([1]; vs AGR-Scr, n = 5): increased
fat mass ([1]; vs AGR-Scr, n = 10, 9): reduced
skeletal muscle mass ([1]; vs AGR-Scr, n = 10, 9): increased
glucose metabolism (GTT) ([2]; HFD-fed male mice): improved
insulin resistance (ITT, serum insulin, HOMA-IR) ([2]; HFD-fed male mice): alleviated
blood glucose levels in response to a glucose challenge (GTT) ([2]; WT male mice on chow, glucose 1 g per kg i.p.): reduced
blood glucose levels in response to an insulin challenge (ITT) ([2]; WT male mice on chow, insulin 0.75 U per kg i.p.): reduced
fiber area in TA ([3]; HFD-fed mice, n = 10, 9): increased
Ub-DMD in TA [3, 6]: reduced
expression of DMD in TA [3, 6]: increased
DMD protein status in TA [3, 7]: increased DMD protein status
DRP2 protein status in TA [3, 7]: improved protein status
nNOS protein status in TA [3, 7]: improved protein status
β-dystroglycan protein status in TA [3, 7]: improved protein status
fast glycolytic fiber type IIb in QUAD, SOL and TA [3, 8]: substantial shift toward
percentage of fast oxidative fiber type IIa in QUAD, SOL and TA [3, 8]: reduced percentage
SDH+ fibers in QUAD ([3]; WT mice, vs AGR-Scr, n = 5): reduced SDH+
SDH+ in TA and GAS ([3]; WT mice, vs AGR-Scr, n = 5): minimally altered
SDH+ muscle staining in SOL and EDL ([3]; WT mice, vs AGR-Scr, n = 5): increased SDH+
type I fibers in SOL ([3]; WT mice, vs AGR-Scr, n = 5): marginally reduced
type II fibers in SOL ([3]; WT mice, vs AGR-Scr, n = 5): increased
utrophin protein status in the quadriceps (QUAD) ([3]; WT mice, vs AGR-Scr, n = 8): increased
muscle fiber area ([3]; WT mice, vs Scr mimics): increased
number of muscle fibers (SOL, EDL, TA, GAS, QUAD) ([3]; WT mice, vs Scr mimics, n = 5): increased number
force output, forelimb grip strength test ([4]; HFD-fed mice, n = 5): increased force output
forelimb grip strength, average force ([4]; WT male and female mice, n = 8): increased average force
fatty acid deposition in the liver and WAT ([5]; HFD-fed mice, H&E and Oil Red O, liver weight): significantly reduced
adipocyte size in WAT ([5]; WT male mice on chow, H&E, vs AGR-Scr, n = 5): reduced
fatty acid accumulation in the liver ([5]; WT male mice on chow, Oil Red O, vs AGR-Scr, n = 8): reduced
